# Reference: patent publication US20100183597A1, “DRAK2 EXPRESSION IS ASSOCIATED WITH DIABETES” (priority 2007, published 2010)
# What was measured:
# Drak2 = Drak2 protein levels in siRNA-transfected NIT-1 insulinoma cells by flow cytometry; type: cell-based, mouse; settings: NIT-1 cells; for Drak2 protein upregulation stimulated by FFA: siRNA transfected, cultured 24 h with FFA, intracellular Drak2 by flow cytometry (FIG. 2A); for Drak2 protein upregulation stimulated by cytokines: 24 h (FIG. 10B)
# Description: (§1) Drak2 Tg and WT islets were digested with 0.05% trypsin-EDTA to obtain single cell suspensions. The cells were fixed with 4% paraformaldehyde and permeabilized with 0.2% Triton X-100. They were stained with rabbit anti-Drak2 Ab (Abgent, San Diego, Calif.; 1:50 dilution) and anti-insulin mAb (Sigma, St. Louis, Mo.; 1:500 dilution). Subsequently, they were stained with FITC-conjugated sheep anti-rabbit antibody (Chemicon, Temecula, Calif.), and PE-conjugated goat anti-mouse antibody (Jackson Immunoresearch, West Grove, Pa.), and analyzed by 2-color flow cytometry. Dispersed islet cells or small interfering RNA (siRNA)-transfected NIT-1 cells were also analyzed for apoptosis by flow cytometry using FITC-annexin V staining (Murakami et al., 2004).
# (§2) NIT-1 cells, derived from mouse insulinoma, were transfected with siRNA using Lipofectamine 2000 (Invitrogen, Burlington, Ontario) according to the manufacturer's instructions. For Drak2 siRNA, the oligonucleotide RNA sequences were CAUCCCUGAAGAUGGCAGCtt and GCUGCCAUCUUCAGGGAUGtt. The control was the scrambled sequence of said siRNA with following sequences: 5′CCCUAAGUGUAGGACGCACtt and 3′GUGCGUCCUACACUUAGGGtt. Single stranded RNA pairs were annealed by being incubated for 1 min at 900 C, and then cooled down to room temperature over 45 min. The final concentration of double-stranded siRNA was 20 μM for transfection.
# (§3) Dispersed islet cells were fixed with 4% paraformaldehyde and permeabilized with 0.2% Triton X-100. For Drak2 and insulin detection, the cells were stained as described for confocal microscopy, and analyzed by 2-color flow cytometry. Dispersed islet cells or small interfering RNA (siRNA)-transfected NIT-1 cells were also analyzed for apoptosis by flow cytometry with FITC-annexin V staining (Murakami et al., 2004)).
# (§4) NIT-1 cells, derived from mouse insulinoma, were transfected with siRNA using Lipofectamine 2000 (Invitrogen, Burlington, Ontario) according to the manufacturer's instructions. Two siRNAs specific for Drak2 were employed. For Drak2 siRNA #1162, the oligonucleotide RNA sequences were CAUCCCUGAAGAUGGCAGCtt and GCUGCCAUCUUCAGGGAUGtt. For Drak2 siRNA #592, the oligonucleotide RNA sequences were UAACAUUGUUCACCUUGAUtt and AUCAAGGUGAACAAUGUUAtt. The control siRNA was the scrambled sequence of siRNA #1162 with the following sequences: 5′CCCUAAGUGUAGGACGCACtt and 3′GUGCGUCCUACACUUAGGGtt. Single-stranded RNA pairs were annealed by incubation for 1 min at 900 C, and then cooled down to room temperature over 45 min. The final concentration of double-stranded siRNA was 10 nM for transfection.
# p70S6 kinase = p70S6 kinase phosphorylation in NIT-1 cell lysates by immunoblotting; type: cell-based, mouse; settings: NIT-1 cells, IFN-γ plus IL-1β or TNF-α plus IL-1β, siRNA transfected after 24 h, immunoblot after additional 24 h (FIG. 15B, 15C)
# Protocol: NIT-1 cells were transiently transfected with pCEP4-HA-Drak2 or empty vector pCEP4-HA. After 48 h, the cells were lysed and resolved in 10% SDS-PAGE (60 μg/lane) followed by immunoblotting. For HA-Drak2 expression, membrane was blotted with mouse anti-HA mAb (Santa Cruz, Santa Cruz, Calif.; 1:1000 dilution) followed by horse radish peroxidase (HRP)-conjugated sheep anti-mouse IgG (GE Health; 1:2000 dilution). To assess p70S6 kinase phosphorylation, the membrane was blotted with mouse anti-phospho-p70S6 kinase (Thr389) Ab (Cell Signaling, Danvers, Mass.; 1:1000 dilution) followed by HRP-conjugated sheep anti-mouse IgG (GE Health; 1:2000 dilution). The membrane was also blotted with rabbit anti-p70S6 kinase Ab (Cell Signaling, Danvers, Mass.; 1:1000 dilution) followed by HRP-conjugated donkey anti-rabbit IgG to show similar total p70S6 kinase protein. In some experiments, NIT-1 cells were stimulated with IFN-γ (1000 U/ml) plus IL-1β (0.5 ng/ml), or TNF-α (200 ng/ml) plus IL-1β (0.5 ng/ml). Twenty four hours later, they were transfected with two different Drak2 siRNAs (#592 and #1162), or with a control siRNA. After additional 24 hour, phospho-p70S6 kinase and total p70S6 kinase in the cell lysates were detected by immunoblotting as described above.
# NIT-1 cells = test: Apoptosis of NIT-1 cells by annexin V staining and flow cytometry; type: cell-based, mouse; settings: for FFA-induced apoptosis (annexin V): cultured 24 h with FFA (FIG. 2B)
# Description: as §1, §2, §3, §4
# NIT-1 cells were treated with IFN-g+IL-1b for 72 hours, with or without […] rapamycin. Drak2 siRNA were transfected to some cells at 24 hour, the apoptosis of cells were measured with Annexin-v staining.
# human islets = test: Inflammatory cytokine-induced apoptosis of human islets, annexin V flow cytometry; type: cell-based; settings: TNF-a, IFN-g and IL1-b, 72 h (FIG. 19)
# Protocol: FIG. 19—Drak2 siRNA (designed based on the mouse Drak2 sequence) effectively protects human islets from inflammatory cytokine-induced apoptosis. Human islets were treated with cytokines (IFN-γ (1000 U/ml), IL-1β (0.5 ng/ml), TNF-α (200 ng/ml), 24 h later, they were transfected with a combination of 2 Drak2 siRNA (#592 and #1162, 10 nM each). At 72 h, the islets were harvested, dispersed and tested for annexin V expression by flow cytometry. The percentage of apoptotic cells (annexin V positive) is shown.
# as §3
# [1] = IFN-γ plus IL-1β or TNF-α plus IL-1β
Substance,Drak2 protein upregulation stimulated by FFA (Drak2),cytokine-induced p70S6 kinase phosphorylation (phospho versus total p70S6 kinase) (p70S6 kinase),FFA-induced apoptosis (annexin V) (NIT-1 cells; siRNA transfected),Drak2 protein upregulation stimulated by cytokines (Drak2; [1]),"apoptosis induced by IFN-γ+IL-1β (annexin V) (NIT-1 cells; 72 h, rapamycin 250 nM, Drak2 siRNA transfected at 24 h, alone or combined (FIG. 18))","cytokine-induced apoptosis (annexin V) (NIT-1 cells; siRNA transfected, IFN-γ plus IL-1β or TNF-α plus IL-1β, 24 h (FIG. 10C))",effect on cytokine-induced apoptosis of human islets (human islets),"cytokine-induced Drak2 protein expression (Drak2; IFN-γ plus IL-1β or TNF-α plus IL-1β, siRNA transfected after 24 h, assayed at 48 h (FIG. 15A))"
#592: Drak2 siRNA; oligonucleotide RNA sequences UAACAUUGUUCACCUUGAUtt and AUCAAGGUGAACAAUGUUAtt (SEQ ID Nos:7 and 8) (chain 1 UAACAUUGUUCACCUUGAUTT; chain 2 AUCAAGGUGAACAAUGUUATT; chemistry not fully specified),inhibited Drak2 protein upregulation,inhibited p70S6 kinase phosphorylation,prevented FFA-induced apoptosis,,,,,
#1162: Drak2 siRNA; oligonucleotide RNA sequences CAUCCCUGAAGAUGGCAGCtt and GCUGCCAUCUUCAGGGAUGtt (SEQ ID Nos: 5 and 6),inhibited Drak2 protein upregulation,inhibited p70S6 kinase phosphorylation,prevented FFA-induced apoptosis,prevented Drak2 protein upregulation,,,,
"Drak2 siRNA: Drak2 siRNA without number; Example 4 sequences CAUCCCUGAAGAUGGCAGCtt and GCUGCCAUCUUCAGGGAUGtt, the same as #1162 (GCUGCCAUCUUCAGGGAUGTT; RNA strands with 3' tt overhangs, overhang chemistry not given here, further chemistry not given here)",,,,,reduce apoptosis,dampened,,
"control siRNA: scrambled sequence of siRNA #1162: 5′CCCUAAGUGUAGGACGCACtt and 3′GUGCGUCCUACACUUAGGGtt (SEQ ID Nos: 9 and 10) (chain 1 CCCUAAGUGUAGGACGCACTT; chain 2 GUGCGUCCUACACUUAGGGTT; RNA strands with 3' tt overhangs, overhang chemistry not given here, further chemistry not given here) [reference compound]",no effect,no effect,,no effect,,,no effect,no effect
